In PubChem BioAssay (NCI):
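48-hour exposure; five concentrations; linearly interpolated endpoints. TGI marks complete inhibition of growth.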

Key:
Experiment in all cases: NCI-60 cell line screen, 48 h
RXF 393 renal = tested on: RXF 393 renal
NCI/ADR-RES ovarian = tested on: NCI/ADR-RES ovarian
HS 578T breast = tested on: HS 578T breast
MALME-3M melanoma = tested on: MALME-3M melanoma
HOP-92 NSCLC = tested on: HOP-92 NSCLC
MOLT-4 leukemia = tested on: MOLT-4 leukemia
SK-MEL-5 melanoma = tested on: SK-MEL-5 melanoma
M14 melanoma = tested on: M14 melanoma
K-562 leukemia = tested on: K-562 leukemia
SK-MEL-2 melanoma = tested on: SK-MEL-2 melanoma
T-47D breast = tested on: T-47D breast
HOP-62 NSCLC = tested on: HOP-62 NSCLC
NCI-H23 lung = tested on: NCI-H23 lung
CCRF-CEM leukemia = tested on: CCRF-CEM leukemia
ACHN renal = tested on: ACHN renal
MDA-MB-231 breast = tested on: MDA-MB-231 breast
HCT-15 colon = tested on: HCT-15 colon
NCI-H226 lung = tested on: NCI-H226 lung
A498 renal = tested on: A498 renal
SNB-19 CNS = tested on: SNB-19 CNS
OVCAR-8 ovarian = tested on: OVCAR-8 ovarian
OVCAR-5 ovarian = tested on: OVCAR-5 ovarian
SF-539 CNS = tested on: SF-539 CNS
MDA-N = tested on: MDA-N
NCI-H460 lung = tested on: NCI-H460 lung
MCF7 breast = tested on: MCF7 breast
SNB-75 CNS = tested on: SNB-75 CNS
PC-3 prostate = tested on: PC-3 prostate
DU-145 prostate = tested on: DU-145 prostate
LOX IMVI melanoma = tested on: LOX IMVI melanoma
SW-620 colon = tested on: SW-620 colon
EKVX NSCLC = tested on: EKVX NSCLC
OVCAR-4 ovarian = tested on: OVCAR-4 ovarian
HL-60(TB) leukemia = tested on: HL-60(TB) leukemia
SF-268 CNS = tested on: SF-268 CNS
A549 NSCLC = tested on: A549 NSCLC
OVCAR-3 ovarian = tested on: OVCAR-3 ovarian
SN12C renal = tested on: SN12C renal
SK-MEL-28 melanoma = tested on: SK-MEL-28 melanoma
RPMI-8226 leukemia = tested on: RPMI-8226 leukemia
786-0 renal = tested on: 786-0 renal
SK-OV-3 ovarian = tested on: SK-OV-3 ovarian
SR leukemia = tested on: SR leukemia
UACC-62 melanoma = tested on: UACC-62 melanoma
HCC-2998 colon = tested on: HCC-2998 colon
HCT-116 colon = tested on: HCT-116 colon
SF-295 CNS = tested on: SF-295 CNS
UO-31 renal = tested on: UO-31 renal
U251 CNS = tested on: U251 CNS
UACC-257 melanoma = tested on: UACC-257 melanoma
HT29 colon = tested on: HT29 colon
TK-10 renal = tested on: TK-10 renal
NCI-H522 lung = tested on: NCI-H522 lung
MDA-MB-435 = tested on: MDA-MB-435
KM12 colon = tested on: KM12 colon
IGROV1 ovarian = tested on: IGROV1 ovarian
BT-549 breast = tested on: BT-549 breast
CAKI-1 renal = tested on: CAKI-1 renal
COLO 205 colon = tested on: COLO 205 colon

## O=C1CC(c2ccccc2Cl)C2(C(=O)NC(=O)NC2=O)C(c2ccccc2Cl)C1 (centres undefined)
RXF 393 renal
  TGI: 85.2 µM
NCI/ADR-RES ovarian
  TGI: > 100 µM
HS 578T breast
  TGI: > 100 µM
MALME-3M melanoma
  TGI: 72.4 µM
HOP-92 NSCLC
  TGI: > 100 µM
MOLT-4 leukemia
  TGI: > 100 µM
SK-MEL-5 melanoma
  TGI: > 100 µM
M14 melanoma
  TGI: > 100 µM
K-562 leukemia
  TGI: > 100 µM
SK-MEL-2 melanoma
  TGI: > 100 µM
T-47D breast
  TGI: 78.2 µM
HOP-62 NSCLC
  TGI: > 100 µM
NCI-H23 lung
  TGI: > 100 µM
CCRF-CEM leukemia
  TGI: > 100 µM
ACHN renal
  TGI: > 100 µM
MDA-MB-231 breast
  TGI: > 100 µM
HCT-15 colon
  TGI: > 100 µM
NCI-H226 lung
  TGI: > 100 µM
A498 renal
  TGI: > 100 µM
SNB-19 CNS
  TGI: > 100 µM
OVCAR-8 ovarian
  TGI: > 100 µM
OVCAR-5 ovarian
  TGI: > 100 µM
SF-539 CNS
  TGI: > 100 µM
MDA-N
  TGI: > 100 µM
NCI-H460 lung
  TGI: > 100 µM
MCF7 breast
  TGI: > 100 µM
SNB-75 CNS
  TGI: > 100 µM
PC-3 prostate
  TGI: > 100 µM
DU-145 prostate
  TGI: > 100 µM
LOX IMVI melanoma
  TGI: > 100 µM
SW-620 colon
  TGI: > 100 µM
EKVX NSCLC
  TGI: > 100 µM
OVCAR-4 ovarian
  TGI: > 100 µM
HL-60(TB) leukemia
  TGI: > 100 µM
SF-268 CNS
  TGI: > 100 µM
A549 NSCLC
  TGI: > 100 µM
OVCAR-3 ovarian
  TGI: > 100 µM
SN12C renal
  TGI: > 100 µM
SK-MEL-28 melanoma
  TGI: > 100 µM
RPMI-8226 leukemia
  TGI: > 100 µM
786-0 renal
  TGI: > 100 µM
SK-OV-3 ovarian
  TGI: > 100 µM
SR leukemia
  TGI: > 100 µM
UACC-62 melanoma
  TGI: > 100 µM
HCC-2998 colon
  TGI: > 100 µM
HCT-116 colon
  TGI: > 100 µM
SF-295 CNS
  TGI: > 100 µM
UO-31 renal
  TGI: > 100 µM
U251 CNS
  TGI: > 100 µM
UACC-257 melanoma
  TGI: > 100 µM
HT29 colon
  TGI: > 100 µM
TK-10 renal
  TGI: > 100 µM
NCI-H522 lung
  TGI: > 100 µM
MDA-MB-435
  TGI: > 100 µM
KM12 colon
  TGI: > 100 µM
IGROV1 ovarian
  TGI: 95.9 µM
BT-549 breast
  TGI: > 100 µM

## O=C1c2cccnc2S(=O)(=O)N1c1ccc([N+](=O)[O-])cc1
NCI/ADR-RES ovarian
  TGI: > 100 µM
HS 578T breast
  TGI: > 100 µM
MALME-3M melanoma
  TGI: > 100 µM
HOP-92 NSCLC
  TGI: > 100 µM
MOLT-4 leukemia
  TGI: > 100 µM
SK-MEL-5 melanoma
  TGI: > 100 µM
M14 melanoma
  TGI: > 100 µM
CAKI-1 renal
  TGI: > 100 µM
SK-MEL-2 melanoma
  TGI: > 100 µM
T-47D breast
  TGI: > 100 µM
HOP-62 NSCLC
  TGI: > 100 µM
NCI-H23 lung
  TGI: > 100 µM
CCRF-CEM leukemia
  TGI: > 100 µM
ACHN renal
  TGI: > 100 µM
MDA-MB-231 breast
  TGI: > 100 µM
HCT-15 colon
  TGI: > 100 µM
NCI-H226 lung
  TGI: > 100 µM
A498 renal
  TGI: > 100 µM
SNB-19 CNS
  TGI: > 100 µM
OVCAR-8 ovarian
  TGI: > 100 µM
OVCAR-5 ovarian
  TGI: > 100 µM
SF-539 CNS
  TGI: > 100 µM
MDA-N
  TGI: > 100 µM
NCI-H460 lung
  TGI: > 100 µM
MCF7 breast
  TGI: > 100 µM
SNB-75 CNS
  TGI: > 100 µM
PC-3 prostate
  TGI: > 100 µM
DU-145 prostate
  TGI: > 100 µM
LOX IMVI melanoma
  TGI: > 100 µM
SW-620 colon
  TGI: > 100 µM
EKVX NSCLC
  TGI: > 100 µM
OVCAR-4 ovarian
  TGI: > 100 µM
HL-60(TB) leukemia
  TGI: > 100 µM
SF-268 CNS
  TGI: > 100 µM
A549 NSCLC
  TGI: > 100 µM
OVCAR-3 ovarian
  TGI: > 100 µM
SN12C renal
  TGI: > 100 µM
SK-MEL-28 melanoma
  TGI: > 100 µM
RPMI-8226 leukemia
  TGI: > 100 µM
786-0 renal
  TGI: > 100 µM
SK-OV-3 ovarian
  TGI: > 100 µM
SR leukemia
  TGI: > 100 µM
UACC-62 melanoma
  TGI: > 100 µM
HCC-2998 colon
  TGI: > 100 µM
HCT-116 colon
  TGI: > 100 µM
SF-295 CNS
  TGI: > 100 µM
UO-31 renal
  TGI: > 100 µM
U251 CNS
  TGI: > 100 µM
UACC-257 melanoma
  TGI: > 100 µM
COLO 205 colon
  TGI: > 100 µM
HT29 colon
  TGI: > 100 µM
TK-10 renal
  TGI: > 100 µM
NCI-H522 lung
  TGI: > 100 µM
MDA-MB-435
  TGI: > 100 µM
KM12 colon
  TGI: > 100 µM
IGROV1 ovarian
  TGI: > 100 µM
BT-549 breast
  TGI: > 100 µM
